Where two headings read alike, the source gives them in different places.
What was measured:
RKO-E6 cells = test: MTT cell viability assay, RKO-E6 cells; conditions: for EC50: Homo sapiens, RKOE6, 48 h, read-out: Cytotoxic Potency (EC50) RKO-E6
Experimental: (§1) Cell viability was measured with MTT reagent as described in materials and methods.
(§2) Cell viability was detected by the MTT assay. Briefly, 1×10^5 cells were incubated per well of a sterile, 96-well assay plate with 0-60 μM of test compounds for 48 hours. MTT reagent was added to each well, final concentration of 0.5 mg/mL, and incubated for an additional 3 hours. The media was aspirated and remaining MTT reagent from each well and added 100 μL of HCl:isopropanol (1:24). The absorbance of each sample was measured at 405 nm.

RKO cells = test: MTT cell viability assay, RKO cells
Experimental: as §1, §2

HCT 116 −/− cells = test: MTT cell viability assay, HCT 116 p53 −/− cells; conditions: for EC50: Homo sapiens, HCT-116, 48 h, read-out: Cytotoxic Potency (EC50) HCT −/−
p53 [1] = test: p53 accumulation ratio in RKO-E6 and RKO cells, punaglandin study; assay type: cell-based, human; conditions: 6 h; 50 μM Etoposide, 60 μM PGA2
Experimental: To determine if punaglandins inhibit p53 degradation by disrupting the proteasome pathway, the accumulation ratio of p53 was determined in RKO and RKO-E6 cells treated with selected punaglandins, PNG 4 (8) and PNG 6 (10). Equally seeded RKO and RKO-E6 cells were treated with vehicle (0.5% DMSO), 50 μM Etoposide, 60 μM PGA2 (3), 7 μM PNG 6 (10), and 7 μM PNG 4 (8). After 6 h incubation with vehicle or drug, cells were lysed and harvester. […] of protein from each lysate was fractionated by SDS-PAGE and probed for p53 protein. The p53 band intensities were then analyzed and quantitated using densitometry. The ratio of p53 in RKO-E6 to RKO cells was calculated by dividing the amount of p53 in RKO-E6 cells by the amount in RKO cells and multiplying by 100 to give percent

HCT 116 +/+ cells [2] = test: MTT cell viability assay, HCT 116 p53 +/+ cells; conditions: for EC50: Homo sapiens, HCT-116, 48 h, read-out: Cytotoxic Potency (EC50) HCT +/+
Experimental: as §1, §2

p53 [3] = test: p53 accumulation, ratio RKO-E6 cells/RKO cells (immunoblot, densitometry); assay type: cell-based, human; conditions: 6 h; etoposide 50 μM, MG115, NSC-302979, DBA 20 μM, others 60 μM
Experimental: A) Accumulation of polyubiquitin. RKO-E6 cells were treated with DMSO vehicle for 24 h, 37° C., or with the concentrations of test compounds that gave 80% cell death (as determined by cell viability assay at 48 h) for 6, 12, or 24 h, 37° C. […] Schematic depicting p53 degradation via the proteasome pathway in RKO cells versus RKO-E6 cells. The activity of the HPV E6 oncoprotein hastens p53 degradation in RKO-E6 cells. ii. RKO and RKO-E6 cells were treated with vehicle, etoposide (50 μM), MG115 (20 μM), Δ12-PGJ2 (60 μM), NSC-302979 (20 μM, DBA (20 μM), curcumin (60 μM), PGB1 (60 μM), NSC-156236, (60 XM)or DPTP 60 μM for 6 h, 37° C. Lysates were fractionated by SDS-PAGE and their p53 content determined immunochemically. iii. p53 levels were measured by densitometry and the ratio of p53 protein in RKO-E6 cells/RKO cells calculated.
The medium was removed and cells lysed in 50 mM Tris, pH 7.4, 100 mM NaCl, 2 mM EDTA with 0.1% SDS, 0.1% deoxycholate, 1× complete protease inhibitor mixture. Protein concentration was measured by the Bradford method. Equal portions of the total cell lysate were fractionated from each sample (12.5 μg of protein) by SDS-PAGE. Proteins were transferred to poly(vinylidene difluoride) blocked with 5% (w/v) nonfat dry milk in Trisbuffered saline [20 mM Tris-HCl, pH 7.5, 100 mM sodium chloride, 0.1% (v/v) Tween 20]. Proteins were detected immunochemically by using primary antibodies directed against p53 (1:4000) or ubiquitin (1:1000), followed by horseradish peroxidase-conjugated secondary antibodies (1:4000). Antigen-antibody complexes were detected with enhanced chemiluminescence reagents. Gels were scanned and quantified intensities using Kodak 1D Image Analysis Software.

p21 = p21 accumulation in RKO cells; assay type: cell-based, human; conditions: 6 h
Experimental: It was therefore hypothesized that the isopeptidase inhibitors PNG 4 (8) and PNG 6 (10) would cause a similar accumulation of p21 protein. RKO cells were treated with 2 μM and 7 μM of 8 and 10, 50 μM Etoposide, 60 μM PGA2 (3), or 0.5% DMSO for 6 h before harvesting. Protein was then quantitated, fractionated by SDS-PAGE, and probed for p21 protein. The p21 band intensities were then analyzed and quantitated using densitometry. The ratio of p21 in treated cells to control cells was calculated by dividing the amount of p21 in treated cells by the amount in control cells and multiplied by 100 to give percent.

ubiquitin isopeptidases = test: In vitro isopeptidase activity in HCT 116 lysates, Ub-PEST; assay type: biochemical, human; conditions: 2-200 μM, 45 min
Experimental: Isopeptidase Assay. It was hypothesized that the punaglandins would inhibit ubiquitin-isopeptidase activity of the proteasome pathway as does the prostaglandin, Δ^12-PGJ2 (1), but with greater potency because of the chlorinated C-10. To validate this theory, cellular isopeptidase enzymatic activity was measured in vitro after treatment with individual punaglandins, PNG 2 (6), PNG 3 (7), and Z-PNG 4 (9) and in vivo after individual treatment with PNG 4 (8) and PNG 6 (10). This activity was determined utilizing the simple isopeptidase substrate, ubiquitin-PEST (Ub-PEST), a full/length ubiquitin (Ub) molecule fused with an 18-amino acid C-terminal peptide extension that most isopeptidases use as a substrate. The polypeptide extension contains regions rich in Pro (P), Glu (E), Ser (S), and Thr (T) residues called PEST motifs that are responsible for rapid degradation of these and other unstable proteins. Ub isopeptidases specifically cleave this peptide extension, yielding free, full-length Ub. Both the fused Ub-PEST (10.5 kDa) and the cleaved, free Ub (8.5 kDa) can be observed via immunochemical detection.
In Vitro Isopeptidase Activity. PNG 2 (6), PNG 3 (7), and Z-PNG 4 (9) were initially analyzed for isopeptidase activity in vitro in HCT 116 lysates. Cells were lysed with isopeptidase activity buffer and protein concentration adjusted to 0.3 mg/mL per sample. Each sample was subsequently incubated with 2 μM, 6 μM, 20 μM, 60 μM, or 200 μM of PNG 2 (6), PNG 3 (7), Z-PNG 4 (9), Δ^12-PGJ2 (1), and PGA1 (2) in addition to 50 μg/ml of Ub-PEST. Negative control cells were treated with vehicle (0.5% DMSO) and equivalent Ub-PEST. […] The amount of fused Ub-PEST and free Ub product was determined by SDS-PAGE fractionation.

HCT 116 +/+ cells [4] = conditions: Mullally et al., University of Utah, 2003; read-out: EC50 in competent HCT 116 cells; cited from earlier work
isopeptidase = conditions: cited from earlier work
caspase-3 = test: Caspase-3 activity in RKO cells (DEVD-AMC); assay type: cell-based, human; conditions: PNG 4 0.5 μM, PNG 6 1 μM, Taxol 1 μM
Experimental: To determine if selected punaglandins, PNG 4 (8) and PNG 6 (10) also induce apoptosis in RKO cells in a time dependent manner, caspase-3 activity was determined. During apoptosis the caspases, a family of cysteinyl aspartate-specific proteases, are activated. These enzymes cleave specific substrates resulting in biochemical and morphological changes associated with apoptosis. Therefore, detection of activated caspases can be used as a biochemical marker for apoptosis. Caspase-3 has substrate specificity for the amino acid sequence Asp-Glu-Val-Asp (DEVD), cleaving after Asp, and therefore caspase activity can be measured by monitoring cleavage of the substrate DEVD-AMC (Asp-Glu-Val-Asp-7-amino-4-[…]).
RKO cells were treated for 4, 8, and 12 h with PNG 4 (8) at 0.5 μM and PNG 6 (10) at 1 μM. Taxol, a known apoptotic inducer at 1 μM, was used as a positive control, and negative control cells were treated with vehicle (0.5% DMSO). Caspase-3 activity rose steadily as expected from 4-12 h in cells treated with PNG 4 (8), PNG 6 (10), and Taxol but remained constant in the untreated control cells.

[5] = Homo sapiens, RKO, 48 h, read-out: Cytotoxic Potency (EC50) RKO

Structure (SMILES): COc1cc([C@@H]2c3cc4c(cc3[C@@H](O[C@@H]3O[C@@H]5CO[C@@H](C)O[C@H]5[C@H](O)[C@H]3O)[C@H]3COC(=O)[C@H]23)OCO4)cc(OC)c1O [Etoposide, etoposide]
- potency in RKO-E6 cells less than in RKO cells (RKO-E6 cells; 48 h, MTT): ~3 fold
- EC50 (RKO-E6 cells): 20 ± 2.7 µM
- EC50 (RKO cells; [5]): 7.3 ± 1.6 µM
- potency in HCT 116 −/− cells less than in HCT 116 +/+ cells (HCT 116 −/− cells; 48 h, MTT): ~4 fold
- EC50 (HCT 116 −/− cells): 29 ± 6.8 µM
- p53 in RKO-E6 cells as percent of RKO cells (p53 [1]): 50%
- EC50 (HCT 116 +/+ cells [2]): 7.8 ± 3.9 µM
- ratio of p53 protein [RKO-E6 cells/RKO cells] (p53 [3]): 0.1
- p21 protein in treated cells relative to control cells (p21; 50 µM): 290%

Structure (SMILES): CCCCC[C@H](O)/C=C/[C@H]1C=CC(=O)[C@@H]1CCCCCCC(=O)O [PGA1]
- EC50 (RKO cells; read-out: EC50 in RKO cell lines, prostaglandins for comparison, comparison values in the text): 33.6 µM
- inhibition of Ub-PEST degradation in HCT 116 lysates (ubiquitin isopeptidases): no detectable inhibition
- EC50 (HCT 116 +/+ cells [4]): 11.6 µM
- isopeptidase inhibition relative to Δ12-PGJ2 (isopeptidase): significantly less potent

Structure (SMILES): CCCCC[C@H](O)/C=C/[C@H]1C=CC(=O)[C@@H]1C/C=C\CCCC(=O)O [PGA2]
- p53 in RKO-E6 cells as percent of RKO cells (p53 [1]): 60%
- isopeptidase inhibition relative to Δ12-PGJ2 (isopeptidase): significantly less potent
- p21 protein in treated cells relative to control cells (p21; RKO cells, 50 μM Etoposide, 60 μM PGA2, punaglandins 2 and 7 μM): 10%

Structure (SMILES): CC(=O)O[C@H]1C(=O)[C@@]2(C)[C@H]([C@H](OC(=O)c3ccccc3)[C@]3(O)C[C@H](OC(=O)[C@H](O)[C@@H](NC(=O)c4ccccc4)c4ccccc4)C(C)=C1C3(C)C)[C@]1(OC(C)=O)CO[C@@H]1C[C@@H]2O [Taxol, paclitaxel]
- EC50 (RKO-E6 cells): 0.004 µM
- cell death in RKO compared with RKO-E6 cells (RKO cells; 48 h, MTT, isogenic pair): equivalent
- EC50 (RKO cells; [5]): 0.004 µM
- EC50 (HCT 116 −/− cells): 0.005 µM
- cell death in HCT 116 +/+ compared with HCT 116 −/− cells (HCT 116 +/+ cells [2]; 48 h, MTT, isogenic pair): equivalent
- EC50 (HCT 116 +/+ cells [2]): 0.004 µM
- Caspase-3 activity from 4-12 h (caspase-3): rose steadily

From patent US20060106099A1, “Novel inhibitors of ubiquitin isopeptidases” (priority 2002, published 2006)
